Laboratory results published in US11453660B2, “Androgen receptor and glucocorticoid receptor modulators” (ONCOSTELLAE, S.L., priority 2017, dated 2022).
Structures can show the parent of a compound that is named as a salt.

How the values were obtained:
[1] = target: T1, Rat Androgen Receptor (Rattus norvegicus, UniProt P15207); experiment: Rat Androgen Receptor Binding (polarscreen AR competitor assay, fluorescence polarization); details: displacement of Fluormone AL Green, 4 hours at RT, read-out: AR rat-fluorimetric
T1 construct: purchased Life Technologies A15880
T1 sequence (P15207 646-902 limits assumed): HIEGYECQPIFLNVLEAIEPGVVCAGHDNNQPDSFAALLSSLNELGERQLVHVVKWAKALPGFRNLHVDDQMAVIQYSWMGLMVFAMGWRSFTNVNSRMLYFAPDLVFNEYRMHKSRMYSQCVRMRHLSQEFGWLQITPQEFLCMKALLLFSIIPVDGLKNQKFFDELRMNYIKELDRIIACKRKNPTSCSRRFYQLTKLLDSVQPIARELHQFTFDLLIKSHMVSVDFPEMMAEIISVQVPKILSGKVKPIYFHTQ
Protocol: Pharmacological Activity Rat Androgen Receptor Binding
The assay was carried out following the instructions of polarscreen AR competitor assay green kit (Life Technologies, Cat #.: A15880). Briefly, the test is based on measuring the changes of fluorescence polarization shown by the Fluormone AL Green. Thus, when the Fluormone is bound to the receptor, a fluorescence polarization is observed that diminishes when a ligand competes for the receptor binding site and the Fluormone gets displaced.
The inhibition values for each of the compounds are measured in duplicate at 1 and 10 μM and the plate is incubated for 4 hours at RT. Fluorescence polarization is the measured in a Tecan Infinite M1000 Pro reader (λexc=485 nm, λem=535 nm). In order to obtain a dose-response curve and calculate the potency of inhibition (expressed as IC50) for AR, a series of 1:10 dilutions in test in 1× buffer from 10 μM to 0.1 nM for each compound was carried out.

[2] = target: T2, human androgen receptor (Homo sapiens, UniProt P10275, T878A); experiment: Human Androgen Receptor Binding (radioligand binding, LnCap prostate cancer cell line); details: LnCap cells, displacement of [^3H]-methyltrienolone, 2 hours at 37° C.; read-out: AR LNCaP
T2 construct: endogenously expressed human androgen receptor using the LnCap prostate cancer cell line; endogenous in cells; host or cells: LNCaP prostate cancer cell line (whole cells)
T2 sequence (P10275 1-920 T878A): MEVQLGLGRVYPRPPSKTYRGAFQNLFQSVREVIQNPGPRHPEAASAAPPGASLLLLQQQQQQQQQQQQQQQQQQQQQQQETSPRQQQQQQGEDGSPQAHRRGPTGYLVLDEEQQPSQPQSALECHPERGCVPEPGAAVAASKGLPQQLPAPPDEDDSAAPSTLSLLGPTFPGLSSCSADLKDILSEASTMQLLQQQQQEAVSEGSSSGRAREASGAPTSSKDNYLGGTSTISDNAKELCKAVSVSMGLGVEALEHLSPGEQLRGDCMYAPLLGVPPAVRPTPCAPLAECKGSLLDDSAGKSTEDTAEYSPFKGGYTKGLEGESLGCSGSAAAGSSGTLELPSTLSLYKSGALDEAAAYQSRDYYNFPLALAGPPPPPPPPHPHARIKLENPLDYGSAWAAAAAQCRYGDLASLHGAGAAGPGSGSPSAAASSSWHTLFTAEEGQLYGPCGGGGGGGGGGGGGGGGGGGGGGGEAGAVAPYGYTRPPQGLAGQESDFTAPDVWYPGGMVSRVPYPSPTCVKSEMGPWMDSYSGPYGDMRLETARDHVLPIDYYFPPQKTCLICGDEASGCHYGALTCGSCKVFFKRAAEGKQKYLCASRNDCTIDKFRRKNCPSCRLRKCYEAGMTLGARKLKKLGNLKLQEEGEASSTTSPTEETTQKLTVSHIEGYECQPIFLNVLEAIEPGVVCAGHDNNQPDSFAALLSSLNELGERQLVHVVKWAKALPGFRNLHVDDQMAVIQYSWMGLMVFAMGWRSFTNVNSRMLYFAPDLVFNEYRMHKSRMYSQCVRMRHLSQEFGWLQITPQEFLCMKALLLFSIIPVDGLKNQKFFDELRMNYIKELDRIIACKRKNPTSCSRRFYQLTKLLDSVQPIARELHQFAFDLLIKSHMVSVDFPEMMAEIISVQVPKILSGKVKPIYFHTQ
Summary of the method: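 Whole-cell displacement of [3H]-methyltrienolone from endogenous AR (T878A) in LnCap cells, in RPMI with 0.1% BSA and triamcinolone acetonide. Compounds 10 μM to 0.1 nM in 1:10 steps, 2 h at 37 °C; cells washed, SDS-lysed, bound radioactivity by scintillation counting for IC50.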

[3] = target: T3, Human Glucocorticoid Receptor (Homo sapiens, UniProt P04150); experiment: Competition Binding in IM-9 Human Glucocorticoid Receptor (GR IM-9); details: cytosol from IM-9 cell line, 1.5 nM [3H]-Dexamethasone, 4° C. for 6 hours
T3 construct: endogenous in cells; host or cells: cytosol from IM-9 cell line
T3 sequence (P04150 1-777): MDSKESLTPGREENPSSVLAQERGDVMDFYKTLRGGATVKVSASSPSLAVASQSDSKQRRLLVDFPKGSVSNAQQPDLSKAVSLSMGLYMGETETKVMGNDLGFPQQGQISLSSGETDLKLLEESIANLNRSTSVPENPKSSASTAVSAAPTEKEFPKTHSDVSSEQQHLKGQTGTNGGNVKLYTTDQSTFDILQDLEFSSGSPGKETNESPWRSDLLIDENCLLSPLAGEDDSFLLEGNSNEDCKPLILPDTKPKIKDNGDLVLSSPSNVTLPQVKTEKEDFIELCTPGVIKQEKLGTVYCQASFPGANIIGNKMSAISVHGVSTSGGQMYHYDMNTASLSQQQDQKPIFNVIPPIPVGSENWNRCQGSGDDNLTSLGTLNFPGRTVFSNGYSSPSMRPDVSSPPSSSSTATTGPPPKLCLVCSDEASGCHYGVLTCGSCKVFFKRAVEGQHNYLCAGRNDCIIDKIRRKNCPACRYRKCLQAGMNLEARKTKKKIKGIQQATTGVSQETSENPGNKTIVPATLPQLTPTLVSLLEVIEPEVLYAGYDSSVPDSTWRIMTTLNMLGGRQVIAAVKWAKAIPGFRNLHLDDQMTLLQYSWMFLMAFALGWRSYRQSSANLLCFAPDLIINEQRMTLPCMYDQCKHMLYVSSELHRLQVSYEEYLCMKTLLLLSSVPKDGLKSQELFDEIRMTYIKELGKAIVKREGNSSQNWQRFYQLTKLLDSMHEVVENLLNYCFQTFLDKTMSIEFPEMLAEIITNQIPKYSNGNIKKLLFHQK
Summary of the method: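 Radioligand competition using 100 μg IM-9 cell cytosol and 1.5 nM [3H]-dexamethasone, incubated 6 h at 4° C in TES/molybdate buffer, pH 7.4. Filtration on PEI-treated GF/B filters, scintillation counting; nonspecific binding defined with 10 μM triamcinolone.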

Row | IC50 [1] [nM] | IC50 [2] [nM] | IC50 [3] [nM] | Structure (SMILES)
1 | 100 to 1000 | 100 to 1000 | – | COC(=O)C1=C(CF)NC(C)=C(C(C)=O)C1c1csc2ccccc12 (stereo not shown) [Example C20, Methyl 5-acetyl-4-(benzo[b]thiophen-3-yl)-2-(fluoromethyl)-6-methyl-1,4-dihydropyridine-3-carboxylate]
2 | < 100 | < 100 | – | CC1=C(C#N)C(c2csc3ccccc23)C(C#N)=C(C)N1 [Example E1, 4-(Benzo[b]thiophen-3-yl)-2,6-dimethyl-1,4-dihydropyridine-3,5-dicarbonitrile]
3 | 100 to 1000 | – | < 100 | CC(=O)C1=C(C)NC(C)=C(C(=O)OCC2CCCC2)C1c1csc2ncccc12 (stereo not shown) [Example C35, Cyclopentylmethyl 5-acetyl-2,6-dimethyl-4-(thieno[2,3-b]pyridin-3-yl)-1,4-dihydropyridine-3-carboxylate]
4 | < 100 | 100 to 1000 | – | CC(=O)C1=C(C)NC(C)=C(C(C)=O)C1c1csc2ncccc12 [Example H15, 1,1′-(2,6-Dimethyl-4-(thieno[2,3-b]pyridin-3-yl)-1,4-dihydropyridine-3,5-diyl)bis(ethan-1-one)]
5 | < 100 | < 100 | – | CC(=O)C1=C(C)NC(C)=C(C(C)=O)C1c1csc2ccccc12 [Example G1, 1,1′-(4-(benzo[b]thiophen-3-yl)-2,6-dimethyl-1,4-dihydropyridine-3,5-diyl)diethanone]
6 | ≥ 1000 | – | – | COC(=O)C1=C(C)NC(C)=C(C(C)=O)C1c1csc2ccc(C(=O)N3CCN(C)CC3)cc12 (stereo not shown) [Example J17, Methyl 5-acetyl-2,6-dimethyl-4-(5-(4-methylpiperazine-1-carbonyl)benzo[b]thiophen-3-yl)-1,4-dihydropyridine-3-carboxylate]
7 | 100 to 1000 | – | – | COC(=O)C1=C(N)NC(C)=C(C(C)=O)C1c1csc2ccccc12 (stereo not shown) [Example K1, Methyl 5-acetyl-2-amino-4-(benzo[b]thiophen-3-yl)-6-methyl-1,4-dihydropyridine-3-carboxylate hydrochloride]
8 | ≥ 1000 | – | – | CC(=O)C1=C(C)NC(C)=C(C(C)=O)C1c1csc2ccc(C(=O)NCC3CC3)cc12 [Example H10, N-(cyclopropylmethyl)-3-(3,5-diacetyl-2,6-dimethyl-1,4-dihydropyridin-4-yl)benzo[b]thiophene-5-carboxamide]
9 | ≥ 1000 | – | – | COC(=O)C1=C(N)NC(C)=C(C(C)=O)C1c1csc2ccccc12 (stereo not shown) [Example K2, Methyl 5-acetyl-2-amino-4-(benzo[b]thiophen-3-yl)-6-methyl-1,4-dihydropyridine-3-carboxylate trifluoromethanesulfonate]
10 | ≥ 1000 | – | – | CC(=O)C1=C(C)NC(C)=C(C(C)=O)C1c1csc2ccc(NCc3ccccc3)cc12 [Example H6, 1,1′-(4-(5-(benzylamino)benzo[b]thiophen-3-yl)-2,6-dimethyl-1,4-dihydropyridine-3,5-diyl)bis(ethan-1-one)]
11 | ≥ 1000 | – | – | CC(=O)C1=C(C)NC(C)=C(C(C)=O)C1c1csc2ccc(C(=O)N3CCN(C)CC3)cc12 [Example H11, 1,1′-(2,6-Dimethyl-4-(5-(4-methylpiperazine-1-carbonyl)benzo[b]thiophen-3-yl)-1,4-dihydropyridine-3,5-diyl)bis(ethan-1-one)]
12 | 100 to 1000 | – | – | CC(=O)C1=C(C)NC(C)=C(C(=O)OC2CCOCC2)C1c1csc2ccccc12 (stereo not shown) [Example C1, Tetrahydro-2H-pyran-4-yl 5-acetyl-4-(benzo[b]thiophen-3-yl)-2,6-dimethyl-1,4-dihydropyridine-3-carboxylate]
13 | ≥ 1000 | – | – | CC(=O)C1=C(C2CC2)NC(C2CC2)=C(C(C)=O)C1c1csc2ccccc12 [Example G4, 1,1′-(4-(Benzo[b]thiophen-3-yl)-2,6-dicyclopropyl-1,4-dihydropyridine-3,5-diyl)diethanone]
14 | 100 to 1000 | – | – | COC(=O)C1=C(C)NC(C)=C(C(C)=O)C1c1csc2cnccc12 (stereo not shown) [Example J20, Methyl 5-acetyl-2,6-dimethyl-4-(thieno[2,3-c]pyridin-3-yl)-1,4-dihydropyridine-3-carboxylate]
15 | < 100 | – | – | CC(=O)C1=C(C)NC(C)=C(C(=O)OC2CCCC2)C1c1csc2ccccc12 (stereo not shown) [Example C26, Cyclopentyl 5-acetyl-4-(benzo[b]thiophen-3-yl)-2,6-dimethyl-1,4-dihydropyridine-3-carboxylate]
16 | ≥ 1000 | – | – | COC(=O)C1=C(C)NC(C)=C(C(C)=O)C1c1csc2ccc(C(=O)O)cc12 (stereo not shown) [Example J14, 3-(3-acetyl-5-(methoxycarbonyl)-2,6-dimethyl-1,4-dihydropyridin-4-yl)benzo[b]thiophene-5-carboxylic acid]
17 | ≥ 1000 | – | – | CC(=O)C1=C(C)NC(C)=C(C(C)=O)C1c1csc2ccc(C(=O)N3CCOCC3)cc12 [Example H12, 1,1′-(2,6-Dimethyl-4-(5-(morpholine-4-carbonyl)benzo[b]thiophen-3-yl)-1,4-dihydropyridine-3,5-diyl)bis(ethan-1-one)]
18 | < 100 | – | – | COC(=O)C1=C(C)NC(C)=C(C(C)=O)C1c1csc2ccc(F)cc12 (stereo not shown) [Example J11, Methyl 5-acetyl-4-(5-fluorobenzo[b]thiophen-3-yl)-2,6-dimethyl-1,4-dihydropyridine-3-carboxylate]
19 | ≥ 1000 | – | – | CC(=O)C1=C(C)NC(C)=C(C(C)=O)C1c1csc2ccncc12 [Example H13, 1,1′-(2,6-Dimethyl-4-(thieno[3,2-c]pyridin-3-yl)-1,4-dihydropyridine-3,5-diyl)bis(ethan-1-one)]
20 | ≥ 1000 | – | – | CC(=O)C1=C(C)NC(C2CC2)=C(C(C)=O)C1c1csc2ccccc12 (stereo not shown) [Example J6, 1,1′-(4-(benzo[b]thiophen-3-yl)-2-cyclopropyl-6-methyl-1,4-dihydro-pyridine-3,5-diyl)diethanone]
